Laboratory results as given in patent US8815535B2, “Disk diffusion assay for oritavancin” (The Medicines Company, priority 2011, dated 2014).
≈ marks a conversion by molar mass, not a printed value. Where “and” joins values, the source holds several entries; their conditions need not be identical. Identical values can stand only once. Like-named read-outs stand apart in the source and are kept apart here.

Tests used:
S. aureus isolates = test: Broth microdilution (BMD) MIC, panel of isolates; format: cell-based; settings: Staphylococcus aureus, wild-type susceptibility to oritavancin
Text: To date, only the broth microdilution (BMD) minimal inhibitory concentration (MIC) test is a reference method accepted by the Clinical Laboratory Standards Institute (CLSI) for use in determining the susceptibility of a bacterial isolate to oritavancin (Methods for Dilution Antimicrobial Susceptibility Tests for Bacteria That Grow Aerobically; Approved Standard, CLSI document M7-A8, 8th ed. Clinical and Laboratory Standards Institute, Wayne, Pa. 2009; Performance Standards for Antimicrobial Susceptibility Testing; Eighteenth Informational Supplement, CLSI document M100-S18, 7th ed. Clinical and Laboratory Standards Institute, Wayne, Pa. 2008).

MSSA ATCC 25923 = test: Disk diffusion assay (zone of inhibition); format: cell-based, Staphylococcus aureus; settings: for Average zone diameter: disks from 18 mg/ml oritavancin in 5% P80, 3-hour prediffusion; for zone of inhibition at 9000 µg/mL: read-out: Inhibition zone diameter, ATCC 25923; for zone of inhibition at 50 µg/disc: read-out: Inhibition zone diameter, MSSA ATCC 25923, 50 μg oritavancin, dried approx. 3 hours, estimate of diameter; for zone of inhibition at 45 µg/disc: 45 μg oritavancin in 0.002% P80; for zone of inhibition at 90 µg/disc: 90 μg oritavancin in 0.002% P80; for zone of inhibition at 180 µg/disc: 180 μg oritavancin in 0.002% P80
Text: The study was designed to identify conditions that improve oritavancin diffusion in agar and consequently yield a zone diameter ≧15 mm for the CLSI quality control strain MSSA ATCC 25923. Excipients that increased the disk diffusion of oritavancin in agar relative to disks containing only oritavancin were identified and selected for further study. […] A prediffusion step at room temperature was introduced to maximize oritavancin diffusion prior to initiation of bacterial growth. In this step, the antimicrobial disks were placed on agar plates seeded with a bacterial isolate and incubated at room temperature for 3 hours. Plates were then incubated overnight at 37° C. Zone diameters around the disks in which bacterial growth was inhibited were measured with a ruler and reported in millimeters.
Ethanol-sterilized Whatman paper disks (6 mm diameter) were allowed to dry then impregnated with 20 microliters of oritavancin solution containing total amounts ranging from 90 to 360 micrograms. Disks were allowed to dry at room temperature for various times prior to use.
Bacterial suspensions were prepared and adjusted to an optical density of 0.1 at 600 nm. […] The plate was swabbed a second time, perpendicular to the orientation of the first swab. To assess the impact of prediffusion on diameter of inhibition zones, two disks were immediately placed on one half of the plate and the plate was incubated for 3 hours at room temperature. After 3 hours, two additional disks were placed on the other half of the plate then the plate was incubated overnight at 37° C. Zone diameters were measured with a ruler and reported in millimeters. […]
Oritavancin powder was dissolved in freshly-prepared solutions of the indicated excipients at concentrations of 0.625, 1.25, 2.5, 5, and 10 mg/ml (adjusted for potency based on lot 875561L00 purity of 83.1%) by vortexing for a minimum of 5 minutes. Oritavancin solutions in the various excipients, while not visually clear, were free from any apparent particulates as assessed visually. Sterile Oxoid blank disks were impregnated with 20 μl of these oritavancin solutions, resulting in oritavancin disk loads ranging from 12.5 to 200 μg. Unless indicated otherwise, disks were allowed to dry overnight at room temperature prior to use.
[…] Swabbing was continued at a right angle and then at an oblique angle to the first and second swabs. Disks were placed upon the seeded plates with sterile forceps. Plates were then incubated overnight at 37° C. and inhibition zone diameters were measured with a ruler and reported in millimeters.

[1] = Staphylococcus aureus, read-out: Average zone diameter, MSSA ATCC 25923, CAMHA containing 1% P80, no prediffusion
[2] = Staphylococcus aureus, read-out: Average zone diameter, MSSA ATCC 25923, CAMHA containing 1% P80, prediffusion

CN[C@H](CC(C)C)C(=O)N[C@H]1C(=O)N[C@@H](CC(N)=O)C(=O)N[C@H]2C(=O)N[C@H]3C(=O)N[C@H](C(=O)N[C@H](C(=O)O)c4cc(O)cc(O)c4-c4cc3ccc4O)[C@H](O[C@H]3C[C@](C)(N)[C@@H](O)[C@H](C)O3)c3ccc(c(Cl)c3)Oc3cc2cc(c3O[C@@H]2O[C@H](CO)[C@@H](O)[C@H](O)[C@H]2O[C@H]2C[C@](C)(NCc3ccc(-c4ccc(Cl)cc4)cc3)[C@@H](O)[C@H](C)O2)Oc2ccc(cc2Cl)[C@H]1O [oritavancin, N-(4-(4-chlorophenyl)benzyl)A82846B]
MIC90 (S. aureus isolates): 0.12 µg/mL (≈ 0.0669 µM) | Inhibition zone diameter (MSSA ATCC 25923; ATCC 25923, 25 μg (20 μl of 1.25 mg/ml) in 4% P80/Span 80 (1:1), calcium alginate swab, dried overnight): 22 mm and 20 mm | Inhibition zone diameter (MSSA ATCC 25923; ATCC 25923, 20 μl of 9 mg/ml oritavancin in 2.5% P80, prediffusion at 4° C. 3 h, duplicate determinations): 19 mm | Inhibition zone diameter (MSSA ATCC 25923; ATCC 25923, 20 μl of 9 mg/ml oritavancin in 2.5% P80, prediffusion at 4° C. 6 h, duplicate determinations): 22 mm | Inhibition zone diameter (MSSA ATCC 25923; ATCC 25923, 20 μl of 9 mg/ml oritavancin in 2.5% P80, prediffusion at room temperature 3 h, duplicate determinations): 17 mm | Inhibition zone diameter (MSSA ATCC 25923; ATCC 25923, 20 μl of 9 mg/ml oritavancin in 2.5% P80, prediffusion at room temperature 6 h, duplicate determinations): 18.5 mm | Inhibition zone diameter (MSSA ATCC 25923; ATCC 25923, Oxoid disks, 20 μl of 18 mg/ml oritavancin in 5% P80, stored 30 days at room temperature, prediffusion 6 hours at 4° C.): 17.5 mm | Average zone diameter (MSSA ATCC 25923; ATCC 25923, stored 1 day at room temperature): 15.0 mm | Average zone diameter (MSSA ATCC 25923; ATCC 25923, stored 4 days at room temperature): 15.8 mm | Average zone diameter (MSSA ATCC 25923; ATCC 25923, stored 6 days at room temperature): 16.3 mm | Average zone diameter (MSSA ATCC 25923; ATCC 25923, stored 8 days at room temperature): 17.0 mm | Average zone diameter (MSSA ATCC 25923; ATCC 25923, used same day): 14.0 mm | Increase of the area of the zone of clearance by prediffusion (MSSA ATCC 25923; MSSA ATCC 25923, 360 μg oritavancin in 0.002% P80): approximately 24% | Zone diameters (MSSA ATCC 25923; MSSA ATCC 25923, CAMHA containing 1% P80, disks with various concentrations of oritavancin in 0.002% P80, even with 3 h prediffusion): < 15 mm | Inhibition zone diameter (MSSA ATCC 25923; MSSA ATCC 25923, Oxoid disk, 180 μg, 5% P80, stored 7 days, prediffusion 3 h at 4° C., duplicates): 12.5 mm | Inhibition zone diameter (MSSA ATCC 25923; MSSA ATCC 25923, Oxoid disk, 270 μg, 5% P80, stored 7 days, prediffusion 3 h at 4° C., duplicates): 13.5 mm | Inhibition zone diameter (MSSA ATCC 25923; MSSA ATCC 25923, Whatman #5 disk, 180 μg, 2.5% P80, stored 7 days, prediffusion 3 h at 4° C., duplicates): 16 mm | Inhibition zone diameter (MSSA ATCC 25923; MSSA ATCC 25923, Whatman #5 disk, 360 μg, 5% P80, stored 7 days, prediffusion 3 h at 4° C., duplicates): 16.5 mm | Zone diameter (MSSA ATCC 25923; MSSA quality control strain ATCC 25923, different combinations of the alterations to the traditional assay): up to 24 mm | zone of inhibition at 360 µg/disc (MSSA ATCC 25923; Staphylococcus aureus, 3 h, read-out: Average zone diameter, ATCC 25923, 360 μg oritavancin, excipient 10% HPCD, disks made same day, 3 h prediffusion, average of 2 disks): 17.5 mm | zone of inhibition at 9000 µg/mL (MSSA ATCC 25923; Staphylococcus aureus, 3 h, 20 μl of 9 mg/ml oritavancin in 2.5% P80, prediffusion at 4° C. 3 h, duplicate determinations): 18 mm | zone of inhibition at 9000 µg/mL (MSSA ATCC 25923; Staphylococcus aureus, 3 h, 20 μl of 9 mg/ml oritavancin in 2.5% P80, prediffusion at room temperature 3 h, duplicate determinations): 16.5 mm | zone of inhibition at 50 µg/disc (MSSA ATCC 25923; Staphylococcus aureus, 3 h, 0.5% P80/Span 80 (35:65) in water): 10 mm | zone of inhibition at 50 µg/disc (MSSA ATCC 25923; Staphylococcus aureus, 3 h, 1% P80/Span 80 (35:65) in water): 15 mm | zone of inhibition at 50 µg/disc (MSSA ATCC 25923; Staphylococcus aureus, 3 h, 2% P80/Span 80 (35:65) in water): 20 mm | zone of inhibition at 50 µg/disc (MSSA ATCC 25923; Staphylococcus aureus, 3 h, 4% P80/Span 80 (35:65) in water): 28 mm | zone of inhibition at 9000 µg/mL (MSSA ATCC 25923; Staphylococcus aureus, 6 h, 20 μl of 9 mg/ml oritavancin in 2.5% P80, prediffusion at 4° C. 6 h, duplicate determinations): 21 mm | zone of inhibition at 9000 µg/mL (MSSA ATCC 25923; Staphylococcus aureus, 6 h, 20 μl of 9 mg/ml oritavancin in 2.5% P80, prediffusion at room temperature 6 h, duplicate determinations): 18 mm | zone of inhibition at 360 µg/disc (MSSA ATCC 25923; Staphylococcus aureus, 192 h, read-out: Zone diameter (mm ± SD), ATCC 25923, 360 μg in 5% P80, Experiment 2, disks stored 8 days, no prediffusion): 14.5 mm | zone of inhibition at 360 µg/disc (MSSA ATCC 25923; Staphylococcus aureus, 216 h, read-out: Average zone diameter, MSSA ATCC 25923, 360 μg oritavancin in 0.002% P80, without prediffusion, two disks (FIG. 1A), disks stored 9 days): 10.5 mm | zone of inhibition at 360 µg/disc (MSSA ATCC 25923; Staphylococcus aureus, 216 h, read-out: Average zone diameter, MSSA ATCC 25923, 360 μg oritavancin in 5% P80, with prediffusion (FIG. 1D), disks stored 9 days): 17 mm | zone of inhibition at 360 µg/disc (MSSA ATCC 25923; Staphylococcus aureus, 216 h, read-out: Average zone diameter, MSSA ATCC 25923, 360 μg oritavancin in 5% P80, without prediffusion (FIG. 1B), disks stored 9 days): 14.8 mm | zone of inhibition at 360 µg/disc (MSSA ATCC 25923; Staphylococcus aureus, 336 h, read-out: Zone diameter (mm ± SD), ATCC 25923, 360 μg in 5% P80, Experiment 1, disks stored 14 days, no prediffusion): 15.3 ± 0.4 mm | zone of inhibition at 360 µg/disc (MSSA ATCC 25923; Staphylococcus aureus, read-out: Average zone diameter, ATCC 25923, 360 μg oritavancin, excipient 5% P80, disks stored 5 days at room temperature, 3 h prediffusion, average of 2 disks): 19 mm | zone of inhibition at 45 µg/disc (MSSA ATCC 25923; [1]): 12 mm | zone of inhibition at 45 µg/disc (MSSA ATCC 25923; [2]): 12.3 mm | zone of inhibition at 90 µg/disc (MSSA ATCC 25923; [1]): 11.8 mm | zone of inhibition at 90 µg/disc (MSSA ATCC 25923; [2]): 12.8 mm | zone of inhibition at 180 µg/disc (MSSA ATCC 25923; [1]): 12.3 mm | zone of inhibition at 180 µg/disc (MSSA ATCC 25923; [2]): 13 mm | zone of inhibition at 360 µg/disc (MSSA ATCC 25923; Staphylococcus aureus, read-out: Average zone diameter, MSSA ATCC 25923, 360 μg oritavancin in 0.002% P80, CAMHA containing 1% P80, no prediffusion): 12.8 mm | zone of inhibition at 360 µg/disc (MSSA ATCC 25923; Staphylococcus aureus, read-out: Average zone diameter, MSSA ATCC 25923, 360 μg oritavancin in 0.002% P80, CAMHA containing 1% P80, prediffusion): 12.5 mm | zone of inhibition at 12.5 µg/disc (MSSA ATCC 25923; Staphylococcus aureus, read-out: Inhibition zone diameter, 25923, 12.5 μg in 4% P80/Span 80 (1:1), calcium alginate swab, dried overnight): 20 mm
